Test results from patent publication US7473711B2, “Androgen modulators” (Pfizer Inc., priority 2004, dated 2009).
Positions count from the first letter of the chain named. Read-outs that look alike come from different tables or passages of the source.

How the values were obtained:
[1] = biological target: T1, hAR (human androgen receptor) (Homo sapiens, UniProt P10275); experiment: Competitive binding analysis on hAR extracts with 3H-DHT tracer
T1 construct: made in house; host or cells: baculovirus/Sf9 insect cells (extract)
T1 sequence (P10275 1-920): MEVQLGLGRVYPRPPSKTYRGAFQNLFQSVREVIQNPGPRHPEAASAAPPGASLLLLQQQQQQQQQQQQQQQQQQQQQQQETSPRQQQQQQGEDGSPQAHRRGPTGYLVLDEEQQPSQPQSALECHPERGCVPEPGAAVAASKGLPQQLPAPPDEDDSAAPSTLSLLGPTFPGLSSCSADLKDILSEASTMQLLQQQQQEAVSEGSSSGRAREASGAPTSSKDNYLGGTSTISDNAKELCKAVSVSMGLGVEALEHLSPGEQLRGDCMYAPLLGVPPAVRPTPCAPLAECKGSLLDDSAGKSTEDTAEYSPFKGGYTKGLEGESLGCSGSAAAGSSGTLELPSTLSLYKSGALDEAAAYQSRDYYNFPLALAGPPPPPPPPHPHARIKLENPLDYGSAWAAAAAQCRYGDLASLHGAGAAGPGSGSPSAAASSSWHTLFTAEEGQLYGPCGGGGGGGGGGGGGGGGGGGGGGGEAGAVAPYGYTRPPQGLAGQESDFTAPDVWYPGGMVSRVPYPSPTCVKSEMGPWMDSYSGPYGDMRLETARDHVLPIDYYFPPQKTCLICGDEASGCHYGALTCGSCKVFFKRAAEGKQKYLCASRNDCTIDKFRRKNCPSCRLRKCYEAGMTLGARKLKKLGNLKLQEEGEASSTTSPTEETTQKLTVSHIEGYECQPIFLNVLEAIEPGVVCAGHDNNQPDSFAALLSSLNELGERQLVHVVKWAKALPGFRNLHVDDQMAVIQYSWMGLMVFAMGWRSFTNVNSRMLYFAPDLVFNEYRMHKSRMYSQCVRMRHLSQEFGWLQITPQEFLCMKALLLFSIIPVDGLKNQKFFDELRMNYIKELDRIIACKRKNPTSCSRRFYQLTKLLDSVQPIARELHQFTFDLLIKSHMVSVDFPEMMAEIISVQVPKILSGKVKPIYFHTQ
Method: The compounds of Formula I have affinity for the androgen receptor. […] The description below describes how the assay was carried out.
Competitive binding analysis was performed on baculovirus/Sf9 generated hAR extracts in the presence or absence of different concentrations of test agent and a fixed concentration of ^3H-dihydrotestosterone (^3H-DHT) as tracer. This binding assay method is a modification of a protocol previously described (Liao S., et. al. J. Steroid Biochem. 20:11-17 1984). Briefly, progressively decreasing concentrations of compounds are incubated in the presence of hAR extract (Chang et al. P.N.A.S. Vol. 89, pp. […], 1992), hydroxylapatite, and 1 nM ^3H-DHT for one hour at 4° C. Subsequently, the binding reactions are washed three times to completely remove excess unbound ^3H-DHT. hAR bound ^3H-DHT levels are determined in the presence of compounds (i.e. competitive binding) and compared to levels bound when no competitor is present (i.e. maximum binding). Compound binding affinity to the hAR is expressed as the concentration of compound at which one half of the maximum binding is inhibited. Table II below provides the results that were obtained for selected compounds (reported data is the mean of multiple tests as shown below)

[2] = biological target: T2, androgen receptor in MDA-MB453-MMTV clone 54-19 cells (Homo sapiens, UniProt P10275); experiment: AR antagonist cell assay (MMTV-luciferase reporter, 100 pM DHT); format: cell-based
T2 sequence (P10275 1-920 Q868H): T1 sequence (P10275 1-920) with Q868H
Method: The compounds ability to antagonize the effects of androgen on the androgen receptor were determined in a whole cell assay as described immediately below.
Experimental Procedure for AR Antagonist Cell Assay
Cell line: MDA-MB453-MMTV clone 54-19. This cell line is a stable transfected cell line with MDA-MB453 cell background (a human breast tumor cell line expressing androgen receptor). A MMTV minimal promoter containing ARE was first cloned in front of a firefly luciferase reporter gene. Then the cascade was cloned into transfection vector pUV120puro. Electroporation method was used for transfecting MDA-MB-453 cell. Puromycin resistant stable cell line was selected. Cell Culture Media and Reagents:
Culture medium: DMEM (high glucose, Gibco cat #: 11960-044), 10% FBS, and 1% L-glutamine
Plating medium: DMEM (phenol red free), 10% charcoal treated HyClone serum, 1% L-glutamine
Assay medium: DMEM (phenol red free), 1% charcoal treated HyClone serum, 1% L-glutamine, and 1% penicillin/streptomycin
3X luciferase buffer: 2% beta-mercaptoethanol, 0.6% ATP, 0.0135% luciferine in cell lysis buffer
• 1. Cells are maintained in culture medium, splitting cells when they reach 80-90% confluence • 2. To test compounds, 10,000 cells/well are plated to opaque 96 cell culture plate in 100 ul/well plating medium, culture for overnight at 37° C. in cell culture incubator • 3. Carefully remove plating medium, then add 80 ul/well of pre-warmed assay medium, add 10 ul/well testing compound (final concentration at) 1000 nM, 200 nM, 40 nM, 8 nM, 1.6 nM, and 0.32 nM), incubate at 37° C. for 30 minutes • 4. Add 10 ul/well freshly prepared DHT (final concentration at 100 pM) to each well, incubate at 37° C. for 17 hr (overnight) • 5. Add 50 ul/well 3X luciferase buffer, incubate at room temperature for 5 minutes, then count on Luminometer
The fold induction over background by 100 pM DHT in the absence of testing compounds is standardized as 100% and experimental result is expressed as percentage of inhibition by testing compounds.
The results are reported as the mean of multiple tests as described below (the numbers of tests are indicated in the footnote). N.D. denotes that the compound was not tested.

[3] = baculovirus/Sf9 hAR extract, 1 nM 3H-DHT, one hour at 4° C, mean of multiple tests, read-out: AR Binding IC50
[4] = MDA-MB453-MMTV clone 54-19, inhibition of 100 pM DHT induced luciferase, 17 hr; mean of multiple tests; read-out: AR Cell IC50
[5] = read-out: AR Cell IC50; MDA-MB453-MMTV clone 54-19, inhibition of 100 pM DHT induced luciferase, 17 hr; mean of multiple tests

| Structure (SMILES) | IC50 [1, 3] [µM] | IC50 [2, 4] [µM] | IC50 [1] [µM] | IC50 [2, 5] [µM] |
| --- | --- | --- | --- | --- |
| CCCC(COc1ccc(C#N)c(C(F)(F)F)c1)Oc1ccc(C#N)c(C(F)(F)F)c1 (centres unmarked) [Example 4, 4,4′-[Pentane-1,2-diylbis(oxy)]bis[2-(trifluoromethyl)benzonitrile]] | 0.63 | > 1 | – | – |
| CC(C)(CCOc1ccc(C#N)c(C(F)(F)F)c1)Oc1ccc(C#N)c(C(F)(F)F)c1 [Example 18, 4,4′-[(3-Methylbutane-1,3-diyl)bis(oxy)]bis[2-(trifluoromethyl)benzonitrile]] | 0.41 | > 1 | – | – |
| C[C@@H](Oc1ccc(C#N)c(C(F)(F)F)c1)[C@@H](C)Oc1ccc(C#N)c(C(F)(F)F)c1 [Example 2, 4,4′-[(2R,3R)-Butane-2,3-diylbis(oxy)]bis[2-(trifluoromethyl)benzonitrile]] | – | – | 0.034 | 0.067 |
| CC(CCCCOc1ccc(C#N)c(C(F)(F)F)c1)Oc1ccc(C#N)c(C(F)(F)F)c1 (centres unmarked) [Example 25, 4,4′-[Hexane-1,5-diylbis(oxy)]bis[2-(trifluoromethyl)benzonitrile]] | 0.159 | > 1 | – | – |
| CC1(C)CC1(COc1ccc(C#N)c(C(F)(F)F)c1)Oc1ccc(C#N)c(C(F)(F)F)c1 (centres unmarked) [Example 10, 4-[1-(4-Cyano-3-trifluoromethyl-phenoxymethyl)-2,2-dimethyl-cyclopropoxy]-2-trifluoromethyl-benzonitrile] | 0.174 | 0.447 | – | – |
| COC[C@H](COc1ccccc1)Oc1ccc(C#N)c(C(F)(F)F)c1 [Example 30, (1R)-4-(1-Methoxymethyl-2-phenoxy-ethoxy)-2-trifluoromethyl-benzonitrile] | – | – | 0.03 | 0.04 |
| CC(CCC(C)Oc1ccc(C#N)c(C(F)(F)F)c1)Oc1ccc(C#N)c(C(F)(F)F)c1 (stereo in doubt) [Example 23, 4,4′-[(2S,5S)-Hexane-2,5-diylbis(oxy)]bis[2-(trifluoromethyl)benzonitrile]] | 0.18 | 0.202 | – | – |
| COCC(COc1ccc(C#N)c(C(F)(F)F)c1)Oc1ccc(C#N)c(C(F)(F)F)c1 (centres unmarked) [Example 5, 4,4′-[(3-Methoxypropane-1,2-diyl)bis(oxy)]bis[2-(trifluoromethyl)benzonitrile]] | – | 0.187 | 0.056 | – |
| C=CCC(CCOc1ccc(C#N)c(C(F)(F)F)c1)Oc1ccc(C#N)c(C(F)(F)F)c1 (centres unmarked) [Example 17, 4,4′-[Hex-1-ene-4,6-diylbis(oxy)]bis[2-(trifluoromethyl)benzonitrile]] | – | > 1 | 0.047 | – |
| CC(C)NCC(COc1ccc(C#N)c(C(F)(F)F)c1)Oc1ccc(C#N)c(C(F)(F)F)c1 (centres unmarked) [Example 7] | 0.319 | > 1 | – | – |
| CC(CCOc1ccc(C#N)c(C(F)(F)F)c1)CCOc1ccc(C#N)c(C(F)(F)F)c1 [Example 26, 4,4′-[(3-Methylpentane-1,5-diyl)bis(oxy)]bis[2-(trifluoromethyl)benzonitrile]] | 0.156 | 0.212 | – | – |
| C[C@H](Oc1ccc(C#N)c(C(F)(F)F)c1)[C@H](C)Oc1ccc(C#N)c(C(F)(F)F)c1 [Example 1, 4,4′-[(2S,3S)-Butane-2,3-diylbis(oxy)]bis[2-(trifluoromethyl)benzonitrile]] | 0.191 | 0.531 | – | – |
| CC(C)CCCC(COc1ccc(C#N)c(C(F)(F)F)c1)Oc1ccc(C#N)c(C(F)(F)F)c1 (centres unmarked) [Example 8] | 0.967 | > 1 | – | – |
| COC[C@@H](COc1ccccc1)Oc1ccc(C#N)c(C(F)(F)F)c1 [Example 31, (1S)-4-(1-Methoxymethyl-2-phenoxy-ethoxy)-2-trifluoromethyl-benzonitrile] | – | 0.126 | 0.046 | – |
| CC(COc1ccc(C#N)c(C(F)(F)F)c1)C(C)Oc1ccc(C#N)c(C(F)(F)F)c1 (centres unmarked) [Example 16, 4-{3-[4-Cyano-3-(trifluoromethyl)phenoxy]-1,2-dimethylpropoxy}-2-(trifluoromethyl)benzonitrile] | 0.372 | – | – | – |
| CCCCCCC(COc1ccc(C#N)c(C(F)(F)F)c1)Oc1ccc(C#N)c(C(F)(F)F)c1 (centres unmarked) [Example 9, 4,4′-[Octane-1,2-diylbis(oxy)]bis[2-(trifluoromethyl)benzonitrile]] | 0.109 | 0.531 | – | – |
| C[C@@H](C[C@H](C)Oc1ccc(C#N)c(C(F)(F)F)c1)Oc1ccc(C#N)c(C(F)(F)F)c1 (stereo in doubt) [Example 20, 4,4′-[(2S,4S)-Pentane-2,4-diylbis(oxy)]bis[2-(trifluoromethyl)benzonitrile]] | – | 0.159 | 0.017 | – |
| C=CC(COc1ccc(C#N)c(C(F)(F)F)c1)Oc1ccc(C#N)c(C(F)(F)F)c1 (centres unmarked) [Example 3, 4,4′-[But-1-ene-3,4-diylbis(oxy)]bis[2-(trifluoromethyl)benzonitrile]] | 0.115 | 0.457 | – | – |
